In US20160145247A1, “Aminomethyl-Biaryl Derivatives Complement Factor D inhibitors and uses thereof” (NOVARTIS AG, priority 2013, published 2016) one finds IC50 data, which are given here for 34 molecules.

Usually IC50 stands for the concentration needed to halve the response being measured. A higher IC50 goes with weaker potency.

T1 sequence (P00746 26-253): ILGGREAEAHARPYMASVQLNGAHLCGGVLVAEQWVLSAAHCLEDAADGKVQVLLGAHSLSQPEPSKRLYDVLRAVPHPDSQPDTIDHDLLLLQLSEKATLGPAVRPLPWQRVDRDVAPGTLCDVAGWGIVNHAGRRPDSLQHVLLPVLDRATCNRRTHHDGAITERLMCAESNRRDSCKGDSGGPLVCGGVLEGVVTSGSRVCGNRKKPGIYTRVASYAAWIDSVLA

The assay concerns the target T1, factor D (Homo sapiens, UniProt P00746).
T1 construct: made in house; host or cells: E. coli
The assay can be described thus: factor D inhibition assay of Biological Example 2. It counts as biochemical.
`CC(O)c1cc(COc2ccccc2CC(=O)O)cc(-c2cccc([C@H](N)CO)c2)c1` (mixture of isomers) [116-E a), 2-(2-((3′-((S)-1-amino-2-hydroxyethyl)-5-(1-hydroxyethyl)-[1,1′-biphenyl]-3-yl)methoxy)phenyl)acetic acid] gave a 50% inhibitory concentration (IC50) of 9 nM.

With `N[C@H](CO)c1cccc(-c2cc(COc3ccccc3CC(=O)O)cc(C(O)C(F)(F)F)c2)c1` (mixture of isomers) [116-G a), 2-(2-((3′-((S)-1-amino-2-hydroxyethyl)-5-(2,2,2-trifluoro-1-hydroxyethyl)-[1,1′-biphenyl]-3-yl)methoxy)phenyl)acetic acid], the IC50 turned out to be 6 nM.

In turn, `C[C@@H](N)c1cccc(-c2cc(COc3ccccc3CC(=O)O)cc(C(O)C(F)(F)F)c2)c1` (mixture of isomers) [116-H a), 2-(2-((3′-((R)-1-aminoethyl)-5-(2,2,2-trifluoro-1-hydroxyethyl)-[1,1′-biphenyl]-3-yl)methoxy)phenyl)acetic acid] had an IC50 of 1 nM.

With `N[C@H](CO)c1cccc(-c2cc(COc3ccccc3CC(=O)O)cc(C(O)C3CCCCC3)c2)c1` (mixture of isomers) [116-I a), 2-(2-((3′-((S)-1-amino-2-hydroxyethyl)-5-(cyclohexyl(hydroxy)methyl)-[1,1′-biphenyl]-3-yl)methoxy)phenyl)acetic acid], the IC50 is 13 nM.

The molecule `COC(C)c1cc(COc2ccccc2CC(=O)O)cc(-c2cccc([C@@H](C)N)c2)c1` (mixture of isomers) [Example 119-B, 2-(2-((3′-((R)-1-Aminoethyl)-5-(1-methoxyethyl)-[1,1′-biphenyl]-3-yl)methoxy)phenyl)acetic acid (mixture of diastereomers)] yielded an IC50 of 13 nM. This counts as double-digit nanomolar.

In turn, `COC(C)c1cc(COc2ccccc2CC(=O)O)cc(-c2cccc([C@H](N)CF)c2)c1` (mixture of isomers) [Example 121-C, 2-(2-((3′-((S)-1-Amino-2-fluoroethyl)-5-(1-methoxyethyl)-[1,1′-biphenyl]-3-yl)methoxy)phenyl)acetic acid] gave an IC50 of 380 nM.

Consider `N[C@H](CO)c1cccc(-c2cc(COc3ccccc3CC(=O)O)cc(NCC3CCCO3)c2F)c1` (mixture of isomers) [Example 157, 2-(2-((3′-((S)-1-Amino-2-hydroxyethyl)-6-fluoro-5-(((tetrahydrofuran-2-yl)methyl)amino)-[1,1′-biphenyl]-3-yl)methoxy)phenyl)acetic acid], for which it took 5 nM to reach half-maximal inhibition (IC50). Against the preceding molecule, the IC50 is about 76-fold lower.

`N[C@H](CO)c1cccc(-c2ccc3c(c2)C(Oc2ccccc2CC(=O)O)CCC3)c1` (mixture of isomers) [Example 181, 2-(2-((7-(3-((S)-1-Amino-2-hydroxyethyl)phenyl)-1,2,3,4-tetrahydronaphthalen-1-yl)oxy)phenyl)acetic acid (mixture of diastereomers)] showed an IC50 of 8 nM. This IC50 is about 1.6-fold higher than that of the molecule before.

Molecule `NC(CF)c1cccc(-c2cc(COc3ccccc3CC(=O)O)cc(NC[C@@H]3CCCO3)c2)c1F` (mixture of isomers) [Example 204-B, 2-(2-((3′-(1-amino-2-fluoroethyl)-2′-fluoro-5-((((S)-tetrahydrofuran-2-yl)methyl)amino)-[1,1′-biphenyl]-3-yl)methoxy)phenyl)acetic acid (mixture of diastereomers)] yielded an IC50 of 7 nM. This IC50 and that of the molecule before are within 1.5-fold of each other.

For the molecule `C[C@@H](N)c1cccc(-c2cc(COc3ccccc3CC(=O)O)c(F)c(NCC3CCCO3)c2)c1F` (mixture of isomers) [Example 221 b), 2-(2-((3′-((R)-1-aminoethyl)-2′,4-difluoro-5-(((tetrahydrofuran-2-yl)methyl)amino)-[1,1′-biphenyl]-3-yl)methoxy)phenyl)acetic acid], the IC50 came to 4 nM.

`NCc1cccc(-c2cc(COc3ccccc3CC(=O)O)c(F)c(NCC3CCCO3)c2)c1` (racemic) [154-C b), (±)-2-(2-((3′-(aminomethyl)-4-fluoro-5-(((tetrahydrofuran-2-yl)methyl)amino)-[1,1′-biphenyl]-3-yl)methoxy)phenyl)acetic acid] had an IC50 of 4 nM.

As to `CC(C(=O)O)c1ccccc1NC(=O)c1cccc(-c2cc(F)cc(CN)c2)c1` (racemic) [Example 19-B, (±)-2-(2-(3′-(Aminomethyl)-5′-fluoro-[1,1′-biphenyl]-3-ylcarboxamido)phenyl)propanoic acid], inhibition was half-maximal at 666 nM (IC50). Against the preceding molecule, the IC50 is about 170-fold higher.

For the molecule `NCc1cccc(-c2cc(OCC3CCCO3)cc(C(=O)Nc3ccccc3CC(=O)O)c2)c1` (racemic) [Example 63, (±)-2-(2-(3′-(Aminomethyl)-5-((tetrahydrofuran-2-yl)methoxy)-[1,1′-biphenyl]-3-ylcarboxamido)phenyl)acetic acid], the IC50 stood at 16 nM.

Turning to `CC(C#N)Oc1cc(C(=O)Nc2ccccc2CC(=O)O)cc(-c2cccc(CN)c2)c1` (racemic) [Example 64, (±)-2-(2-(3′-(Aminomethyl)-5-(1-cyanoethoxy)-[1,1′-biphenyl]-3-ylcarboxamido)phenyl)acetic acid], it took 63 nM to reach half-maximal inhibition (IC50).

As for `NC(CO)c1cccc(-c2cccc(C(=O)Nc3ccccc3CC(=O)O)c2)c1` (racemic) [Example 86, (±)-2-(2-(3′-(1-Amino-2-hydroxyethyl)-[1,1′-biphenyl]-3-ylcarboxamido)phenyl)acetic acid], the IC50 worked out at 1260 nM.

`NC(CCO)c1cccc(-c2cccc(C(=O)Nc3ccccc3CC(=O)O)c2)c1` (racemic) [Example 87, (±)-2-(2-(3′-(1-amino-3-hydroxypropyl)-[1,1′-biphenyl]-3-ylcarboxamido)phenyl)acetic acid]: the IC50 was 814 nM. Against the preceding molecule, the IC50 is about 1.5-fold lower.

Consider `CC(O)c1cc(COc2ccccc2CC(=O)O)cc(-c2cccc(CN)c2)c1` (racemic) [Example 106, (±)-2-(2-((3′-(Aminomethyl)-5-(1-hydroxyethyl)-[1,1′-biphenyl]-3-yl)methoxy)phenyl)acetic acid], for which 5 nM corresponded to half-maximal inhibition (IC50).

The molecule `NCc1cccc(-c2cc(COc3ccccc3CC(=O)O)cc(NCC3CCCO3)c2F)c1` (racemic) [Example 156-B, (±)-2-(2-((3′-(Aminomethyl)-6-fluoro-5-(((tetrahydrofuran-2-yl)methyl)amino)-[1,1′-biphenyl]-3-yl)methoxy)phenyl)acetic acid] registered an IC50 of 2 nM. Against the preceding molecule, the IC50 is about 2.5-fold lower.

`NCc1cccc(-c2ccc3c(c2)C(Oc2ccccc2CC(=O)O)CC3)c1` (racemic) [Example 162, (±)-2-(2-((6-(3-(Aminomethyl)phenyl)-2,3-dihydro-1H-inden-1-yl)oxy)phenyl)acetic acid] registered an IC50 of 2 nM.

Molecule `CC(Oc1ccccc1CC(=O)O)c1cccc(-c2cccc(CN)c2)c1` (racemic) [Example 163, (±)-2-(2-(1-(3′-(aminomethyl)-[1,1′-biphenyl]-3-yl)ethoxy)phenyl)acetic acid] registered an IC50 of 61 nM.

`CNC(CO)c1cccc(-c2cccc(COc3ccccc3CC(=O)O)c2)c1` (racemic) [Example 171, (±)-2-(2-((3′-(2-Hydroxy-1-(methylamino)ethyl)-[1,1′-biphenyl]-3-yl)methoxy)phenyl)acetic acid] showed an IC50 of 2540 nM.

Take `N[C@H](CO)c1cccc(-c2ccc3c(c2)C(Oc2ccccc2CC(=O)O)CC3)c1` (mixture of isomers) [Example 172, (±)-2-(2-((6-(3-((S)-1-Amino-2-hydroxyethyl)phenyl)-2,3-dihydro-1H-inden-1-yl)oxy)phenyl)acetic acid]: the IC50 is 5880 nM.

As for `CC(Oc1ccccc1CC(=O)O)c1cccc(-c2cccc(CN)c2F)c1` (racemic) [Example 183, (±)-2-(2-(1-(3′-(Aminomethyl)-2′-fluoro-[1,1′-biphenyl]-3-yl)ethoxy)phenyl)acetic acid], inhibition was half-maximal at 29 nM (IC50).

`NC(=O)C(N)c1cccc(-c2cccc(COc3ccccc3CC(=O)O)c2)c1` (racemic) [Example 189, (±)-2-(2-((3′-(1,2-Diamino-2-oxoethyl)-[1,1′-biphenyl]-3-yl)methoxy)phenyl)acetic acid] returned an IC50 of 1110 nM.

In turn, `COCc1cc(COc2ccccc2CC(=O)O)cc(-c2cccc(C(N)CF)c2F)c1` (racemic) [Example 205-B, (±)-2-(2-((3′-(1-Amino-2-fluoroethyl)-2′-fluoro-5-(methoxymethyl)-[1,1′-biphenyl]-3-yl)methoxy)phenyl)acetic acid] displayed an IC50 of 10 nM. Against the preceding molecule, the IC50 is about 110-fold lower.

On to `NC(CF)c1cccc(-c2cc(COc3ccccc3CC(=O)O)cc(OCC3CC3)c2)c1F` (racemic) [Example 206, (±)-2-(2-((3′-(1-Amino-2-fluoroethyl)-5-(cyclopropylmethoxy)-2′-fluoro-[1,1′-biphenyl]-3-yl)methoxy)phenyl)acetic acid], for which the midpoint of inhibition, the IC50, lay at 5 nM.

Consider `NCc1cccc(-c2cc(COc3ccccc3CC(=O)O)cc(C(N)C(F)(F)F)c2)c1` (racemic) [Example 207-B, (±)-2-(2-((5-(1-Amino-2,2,2-trifluoroethyl)-3′-(aminomethyl)-[1,1′-biphenyl]-3-yl)methoxy)phenyl)acetic acid], for which inhibition was half-maximal at 5 nM (IC50). In other words, the single-digit nanomolar range.

In the case of `CC(O)c1cc(COc2ccccc2CC(=O)O)cc(-c2cccc([C@H](N)CO)c2)c1` (single isomer, unassigned) [116-E b) (tr = 3.8 min)], 11 nM corresponded to half-maximal inhibition (IC50).

The molecule `CC(O)c1cc(COc2ccccc2CC(=O)O)cc(-c2cccc([C@H](N)CO)c2)c1` (single isomer, unassigned) [116-E b) (tr = 5.7 min)] showed an IC50 of 13 nM. The IC50 values of the last two molecules are within 1.5-fold of each other.

`N[C@H](CO)c1cccc(-c2cc(COc3ccccc3CC(=O)O)cc(C(O)C(F)(F)F)c2)c1` (single isomer, unassigned) [116-G b) (tr = 2.1 min)] showed an IC50 of 11 nM.

For the molecule `N[C@H](CO)c1cccc(-c2cc(COc3ccccc3CC(=O)O)cc(C(O)C(F)(F)F)c2)c1` (single isomer, unassigned) [116-G b) (tr = 3.4 min)], the IC50 is 9 nM.

`C[C@@H](N)c1cccc(-c2cc(COc3ccccc3CC(=O)O)cc(C(O)C(F)(F)F)c2)c1` (single isomer, unassigned) [116-H b) (tr = 3.0 min)] came in with an IC50 of 10 nM.

With `C[C@@H](N)c1cccc(-c2cc(COc3ccccc3CC(=O)O)cc(C(O)C(F)(F)F)c2)c1` (single isomer, unassigned) [116-H b) (tr = 4.6 min)], the midpoint of inhibition, the IC50, lay at 15 nM. This IC50 is about 1.5-fold higher than that of the molecule before.

As to `N[C@H](CO)c1cccc(-c2cc(COc3ccccc3CC(=O)O)cc(C(O)C3CCCCC3)c2)c1` (single isomer, unassigned) [116-I b) (tr = 4.0 min)], it took 26 nM to reach half-maximal inhibition (IC50).
